Molecular target: T1, 5α-reductase (Homo sapiens, UniProt P18405)
T1 construct: endogenous in cells; host or cells: DU145 prostate carcinoma cells (ATCC HTB 81)
T1 sequence (P18405 1-259): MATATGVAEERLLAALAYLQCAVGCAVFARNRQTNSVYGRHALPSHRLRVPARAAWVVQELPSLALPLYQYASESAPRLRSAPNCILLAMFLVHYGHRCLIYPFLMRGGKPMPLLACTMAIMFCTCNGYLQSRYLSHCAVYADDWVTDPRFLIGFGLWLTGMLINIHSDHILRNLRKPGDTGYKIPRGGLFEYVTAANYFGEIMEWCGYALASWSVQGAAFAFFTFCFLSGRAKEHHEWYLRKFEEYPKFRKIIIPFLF
Test: Inhibition of the 5α-reductase of DU145 cells: quantity of 5-dihydrotestosterone formed from testosterone (RIA)
Type: cell-based
Protocol: The prostatic cells DU145 are derived from a tumor line obtained from a prostate carcinoma (ATCC No. HTB 81). The MEM medium (ref. 0410265), the glutamine and the gentamycin are from Gibco. The fetal calf serum (FCS) is from DAP and is used decomplementized ([…] at 56° C.). The plastics serving for the culture (dishes and plates) are from Costar. The testosterone is from Sigma.
A stock solution in ethanol at 10 mg/ml is prepared from each of the products tested.
The concentration range used for the experiments is the following: 0, 5, 10, 50, 100 and 500 micrograms/ml. (Dilution performed in the culture medium).
The volume of extract added per well being 20 microliters/well, the solutions to be prepared are concentrated 50×.
A stock solution of testosterone at 10 mM is prepared in ethanol. At the time of its use, this solution is diluted 1:1 000 in the culture medium and 10 microliters are added per well.
The prostatic cells DU145 are cultured at 37° C., 5% Co2 in an MEM medium containing glutamine (2 mM), gentamycin (50 micrograms/ml) and 10% FCS. Their subculture rate is 1:10.
Before starting the experiment, the cells are placed in culture in 6-well plates at the rate of 2×10^5 DU145 cells per well/1 ml of medium containing only 1% FCS. The cells are maintained for 3 days at 37° C., 5% CO2. […]

IC50 (testosterone 0.1 micromolar, 3 hours, read-out: IC 50, conversion of testosterone to 5-dihydrotestosterone by the DU 145 cells (converted)): 1300 µM
SMILES: CCCCCCCC/C=C\CCCCCCCC(=O)OC [Methyl oleate, methyl oleate]
5α-reductase inhibitory activity, in words (conclusions of Example 2): markedly less active than the methyl esters of avocado

Reference: US8318186B2, “Use of at least a fatty ester for preparing a composition designed to inhibit 5-α-reductase activity, in pharmacology, in particular dermatology, in cosmetics and as food additive” (Laboratoires Expanscience, priority 2000, dated 2012)
